Drawing on ChEMBL document CHEMBL2311416, “The discovery of potent and selective 4-aminothienopyridines as B-Raf kinase inhibitors” (Bioorg Med Chem Lett, 2013), this text covers IC50 and Ratio IC50 for 20 compounds.

Assay [1] deals with Serine/threonine-protein kinase B-raf (Homo sapiens, UniProt P15056). The assay can be described thus: Inhibition of B-Raf (unknown origin) by fluorescence polarization assay. On the technique in general: Polarisation of emitted light reports the rotation of a fluorescent probe.
Sequence of Serine/threonine-protein kinase B-raf (P15056 whole entry): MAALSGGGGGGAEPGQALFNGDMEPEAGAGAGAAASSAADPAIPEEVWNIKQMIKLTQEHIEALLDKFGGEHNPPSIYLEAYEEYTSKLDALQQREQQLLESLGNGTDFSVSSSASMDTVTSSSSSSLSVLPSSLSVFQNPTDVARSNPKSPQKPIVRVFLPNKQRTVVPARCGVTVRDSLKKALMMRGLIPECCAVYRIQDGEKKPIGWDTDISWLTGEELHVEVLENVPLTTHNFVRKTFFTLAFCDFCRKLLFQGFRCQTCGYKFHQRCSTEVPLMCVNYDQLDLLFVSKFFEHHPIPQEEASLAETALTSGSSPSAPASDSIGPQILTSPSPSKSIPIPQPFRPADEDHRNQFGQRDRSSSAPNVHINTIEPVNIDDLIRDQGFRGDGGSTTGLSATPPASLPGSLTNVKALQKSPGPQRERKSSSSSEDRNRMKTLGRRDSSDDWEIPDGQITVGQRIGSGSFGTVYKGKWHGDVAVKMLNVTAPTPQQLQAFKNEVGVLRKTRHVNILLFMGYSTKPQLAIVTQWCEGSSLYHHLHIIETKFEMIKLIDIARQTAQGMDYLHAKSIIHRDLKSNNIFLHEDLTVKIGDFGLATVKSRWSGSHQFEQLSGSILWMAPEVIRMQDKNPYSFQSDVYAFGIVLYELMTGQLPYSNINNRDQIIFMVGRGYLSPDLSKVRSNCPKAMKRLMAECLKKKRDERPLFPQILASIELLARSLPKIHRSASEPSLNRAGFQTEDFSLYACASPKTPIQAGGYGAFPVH
Assay [2] is filed under the species Homo sapiens. The assay can be described thus: Selectivity ratio of IC50 for SGK1 (unknown origin) to IC50 for B-Raf (unknown origin).
Assay [3] is filed under the species Homo sapiens. The assay can be described thus: Selectivity ratio of IC50 for AKT1 (unknown origin) to IC50 for B-Raf (unknown origin).
The species entered for assay [4] is Homo sapiens. The assay can be described thus: Selectivity ratio of IC50 for EGFR (unknown origin) to IC50 for B-Raf (unknown origin).
For assay [5], the species on record is Homo sapiens. The assay can be described thus: Selectivity ratio of IC50 for PKA (unknown origin) to IC50 for B-Raf (unknown origin).
Assay [6] is filed under the species Homo sapiens. The assay can be described thus: Selectivity ratio of IC50 for aurora-A (unknown origin) to IC50 for B-Raf (unknown origin).
The species entered for assay [7] is Homo sapiens. The assay can be described thus: Selectivity ratio of IC50 for JNK3 (unknown origin) to IC50 for B-Raf (unknown origin).
For assay [8], the species on record is Homo sapiens. The assay can be described thus: Selectivity ratio of IC50 for ZAP70 (unknown origin) to IC50 for B-Raf (unknown origin).
The species named for assay [9] is Homo sapiens. The assay can be described thus: Selectivity ratio of IC50 for aurora-B (unknown origin) to IC50 for B-Raf (unknown origin).
Assay [10] is filed under the species Homo sapiens. The assay can be described thus: Selectivity ratio of IC50 for GSK3beta (unknown origin) to IC50 for B-Raf (unknown origin).
The species entered for assay [11] is Homo sapiens. The assay can be described thus: Selectivity ratio of IC50 for ERBB2 (unknown origin) to IC50 for B-Raf (unknown origin).
The species named for assay [12] is Homo sapiens. The assay can be described thus: Selectivity ratio of IC50 for IGF1R (unknown origin) to IC50 for B-Raf (unknown origin).
For assay [13], the species on record is Homo sapiens. The assay can be described thus: Selectivity ratio of IC50 for BTK (unknown origin) to IC50 for B-Raf (unknown origin).
Assay [14] is filed under the species Homo sapiens. The assay can be described thus: Selectivity ratio of IC50 for IKK2 (unknown origin) to IC50 for B-Raf (unknown origin).
The species entered for assay [15] is Homo sapiens. The assay can be described thus: Selectivity ratio of IC50 for ROCK1 (unknown origin) to IC50 for B-Raf (unknown origin).
Assay [16] is filed under the species Homo sapiens. The assay can be described thus: Selectivity ratio of IC50 for ALK5 (unknown origin) to IC50 for B-Raf (unknown origin).
Assay [17] is filed under the species Homo sapiens. The assay can be described thus: Selectivity ratio of IC50 for SYK (unknown origin) to IC50 for B-Raf (unknown origin).

In the case of `Nc1ncc(-c2cccnc2)c2scc(-c3cccc(NC(=O)Cc4cccs4)c3)c12`, the IC50 (as a rule, the concentration at which inhibition is half-maximal) in assay [1] stood at 45 nM.
As for `Nc1ncc(-c2cccnc2)c2scc(-c3cccc(NC(=O)c4cccc(C(F)(F)F)c4)c3)c12`, the Ratio IC50 in the assay listed under Homo sapiens [2], in the assay filed under Homo sapiens [3], in the assay filed under Homo sapiens [4], in the assay filed under Homo sapiens [5], in the assay listed under Homo sapiens [6] and in the assay listed under Homo sapiens [7] was more than 40 each time. In addition, the Ratio IC50 in the assay filed under Homo sapiens [8], in the assay listed under Homo sapiens [9], in the assay listed under Homo sapiens [10], in the assay listed under Homo sapiens [11], in the assay listed under Homo sapiens [12] and in the assay listed under Homo sapiens [13] was more than 40 in each case. Besides, the Ratio IC50 in the assay listed under Homo sapiens [14], in the assay listed under Homo sapiens [15], in the assay listed under Homo sapiens [16] and in the assay listed under Homo sapiens [17] was more than 40 in each case. In addition, half-maximal inhibition in assay [1] (IC50) was put at 5.1 nM.
Turning to `Nc1ncc(-c2cccnc2)c2scc(-c3cccc(NC(=O)Nc4cc(C(F)(F)F)ccc4F)c3)c12`, the IC50 in assay [1] was 21.4 nM. That is a double-digit nanomolar value.
On the same count and under the same terms, for `Nc1ncc(-c2cccnc2)c2scc(-c3cccc(NC(=O)c4ccccc4)c3)c12` the value was 93 nM; for `Nc1ncc(-c2cccnc2)c2scc(-c3cccc(NC(=O)NC4CCCCC4)c3)c12`, 30.9 nM; for `Nc1ncc(-c2cccnc2)c2scc(-c3cccc(NC(=O)NCc4ccccc4)c3)c12`, 20.9 nM.
Same read-out and setting: the value for `Cn1cccc1C(=O)Nc1cccc(-c2csc3c(-c4cccnc4)cnc(N)c23)c1` was 4170 nM.
Same read-out and setting: for `Nc1ncc(-c2cccnc2)c2scc(-c3cccc(NC(=O)Nc4c(F)cccc4F)c3)c12` the value was 19.5 nM; for `Nc1ncc(-c2cccnc2)c2scc(-c3cccc(NC(=O)Nc4ccc(OCc5ccccc5)cc4)c3)c12`, 933 nM.
`CC(C)(C)NC(=O)Nc1cccc(-c2csc3c(-c4cccnc4)cnc(N)c23)c1` had an IC50 in assay [1] of 7940 nM.
As for `Nc1ncc(-c2cccnc2)c2scc(-c3cccc(NC(=O)Nc4ccc(Cl)c(C(F)(F)F)c4)c3)c12`, the Ratio IC50 in the assay listed under Homo sapiens [2], in the assay listed under Homo sapiens [3], in the assay listed under Homo sapiens [4], in the assay filed under Homo sapiens [5], in the assay filed under Homo sapiens [6] and in the assay listed under Homo sapiens [7] was more than 100 each time. Also, the Ratio IC50 in the assay filed under Homo sapiens [8], in the assay listed under Homo sapiens [9], in the assay filed under Homo sapiens [10], in the assay filed under Homo sapiens [11], in the assay filed under Homo sapiens [12] and in the assay filed under Homo sapiens [13] was more than 100 throughout. The Ratio IC50 in the assay listed under Homo sapiens [14], in the assay filed under Homo sapiens [15], in the assay listed under Homo sapiens [16] and in the assay filed under Homo sapiens [17] was more than 100 in each case. This compound had an IC50 in assay [1] of 16.6 nM.
Turning to `Cc1noc(C)c1NC(=O)Nc1cccc(-c2csc3c(-c4cccnc4)cnc(N)c23)c1`, half-maximal inhibition in assay [1] (IC50) was put at 692 nM.
In turn, `Nc1ncc(-c2cccnc2)c2scc(-c3cccc(NC(=O)Nc4ccccc4)c3)c12` came in with an IC50 in assay [1] of 13.8 nM.
Still for that read-out and setting: for `Nc1cccc(-c2csc3c(-c4cccnc4)cnc(N)c23)c1` the value was more than 10000 nM; for `COc1cccc(NC(=O)Nc2cccc(-c3csc4c(-c5cccnc5)cnc(N)c34)c2)c1`, 9.6 nM.
Same read-out and setting: for `Nc1ncc(-c2cccnc2)c2scc(-c3cccc(NS(=O)(=O)c4ccccc4)c3)c12` the value was more than 10000 nM; for `Nc1ncc(-c2cccnc2)c2scc(-c3cccc(NC(=O)Cc4ccccc4)c3)c12`, 19 nM; for `Nc1ncc(-c2cccnc2)c2scc(-c3cccc(NC(=O)C4CCCCC4)c3)c12`, 1550 nM.
Turning to `Nc1ncc(-c2cccnc2)c2scc(-c3cccc(NC(=O)c4cc(F)ccc4F)c3)c12`, half-maximal inhibition in assay [1] (IC50) required 49 nM.
Same read-out and setting: the value for `Nc1ncc(-c2cccnc2)c2scc(-c3cccc(NC(=O)Nc4ccc(C(F)(F)F)cc4)c3)c12` was 25.1 nM.
